Measured values as given in US20250000874A1, “BACTERIAL METABOLITES AND THEIR USE IN REDUCING INFLAMMATION” (LOYOLA UNIVERSITY OF CHICAGO, priority 2023, published 2025).

System: NLRP3 inflammasome
Test: JE on IL-1β production by THP-1 macrophages upon NLRP3 activation
Type: cell-based, human
Experimental: FIG. 22. The Effect of JE on IL-1β Production by THP-1 Macrophages. THP-1 macrophages were pretreated with JE overnight at 37° C., 5% CO2. The next day, they were primed with LPS at 500 ng/ml for 4 hours then activated with 6.5 μM of nigericin for 30 minutes at 37 C, 5% CO2. Supernatants were collected and IL-1β production with ELISA. Data are presented as mean±SEM (n=6). *p<0.05. One of two experiments is shown.
FIG. 23. The Effect of JE on IL-1β Production by THP-1 Macrophages: JE was used as a pretreatment when THP-1 macrophages were pretreated with JE overnight at 37° C., 5% CO2. The next day, they were primed with LPS at 500 ng/ml for 4 hours, then activated with 5 mM of ATP for 30 minutes at 37° C., 5% CO2. In the case when JE was used as a treatment, cells were primed with 10 ng/ml of LPS for 4 hours, then JE was added overnight at 37° C., 5% CO2. The following day, macrophages were activated with 5 mM of ATP for an hour. Supernatants were collected and IL-1β production with ELISA. Data are presented as mean±SEM (n=6). **p<0.01. One of two experiments is shown.
We similarly tested THP-1 cells as described above. […] I collected the supernatant and measured IL-1β by ELISA. […]

SMILES: CC(=O)O[C@@H]1CC[C@H]2[C@H]3CC[C@H]4CC(F)(F)CC[C@]4(C)[C@H]3CC[C@]12C [JE, 3,3-Difluoro-5-alpha-androstan-17-beta-yl acetate]
- IL-1β production upon NLRP3 activation (JE added before priming with LPS (pretreatment overnight)): could decrease
- IL-1β production upon NLRP3 activation (JE after priming with LPS and before adding ATP): still detected robust production
